Laboratory results: ChEMBL document CHEMBL1201862, “PubChem BioAssay data set” (2004)
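Five compound concentrations were applied to cells in 96-well plates for 48 hours; endpoints were derived by simple linear interpolation of the resulting dose-response curve. The concentration for 50% growth inhibition is given as GI50.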 Active and inactive are the calls of the source. Rule as the data show it: active = GI50 up to about 1.1 µM and inactive = higher.

Legend:
Test in all cases: NCI tumour cell line growth inhibition, 48 h
[1] = system: LOX IMVI
[2] = system: NCI-H23
[3] = system: SK-MEL-2
[4] = system: HL-60
[5] = system: UACC-62
[6] = system: NCI/ADR-RES
[7] = system: SF-539
[8] = system: MCF7
[9] = system: PC-3
[10] = system: SK-OV-3
[11] = system: RXF 393
[12] = system: SNB-75
[13] = system: CAKI-1
[14] = system: T47D
[15] = system: HT-29
[16] = system: Hs-578T
[17] = system: TK-10
[18] = system: HCT-116
[19] = system: RPMI-8226
[20] = system: U-251
[21] = system: CCRF-CEM
[22] = system: SK-MEL-5
[23] = system: OVCAR-8
[24] = system: HCT-15
[25] = system: 786-0
[26] = system: MDA-N
[27] = system: SN12C
[28] = system: NCI-H226
[29] = system: KM12
[30] = system: MOLT-4
[31] = system: UACC-257
[32] = system: SNB-19
[33] = system: COLO 205
[34] = system: UO-31
[35] = system: NCI-H522
[36] = system: Malme-3M
[37] = system: OVCAR-5
[38] = system: SW-620
[39] = system: M14
[40] = system: OVCAR-3
[41] = system: ACHN
[42] = system: DU-145
[43] = system: A549
[44] = system: SK-MEL-28
[45] = system: HOP-62
[46] = system: SF-295
[47] = system: EKVX
[48] = system: SF-268
[49] = system: K562
[50] = system: OVCAR-4
[51] = system: IGROV-1
[52] = system: MDA-MB-435
[53] = system: A498
[54] = system: HCC 2998
[55] = system: SR
[56] = system: NCI-H460
[57] = system: MDA-MB-231
[58] = system: HOP-92

SMILES: COc1ccc(CN=C(N)N)c2ccccc12
- GI50 [1]: 24.8 µM (inactive)
- GI50 [2]: 24.3 µM (inactive)
- GI50 [3]: 35.1 µM (inactive)
- GI50 [4]: 23.8 µM (inactive)
- GI50 [5]: 39.4 µM (inactive)
- GI50 [6]: > 100 µM (inactive)
- GI50 [7]: 19.2 µM (inactive)
- GI50 [8]: 36.7 µM (inactive)
- GI50 [9]: 17.7 µM (inactive)
- GI50 [10]: 34.8 µM (inactive)
- GI50 [11]: 33.7 µM (inactive)
- GI50 [12]: 20.5 µM (inactive)
- GI50 [13]: 20.7 µM (inactive)
- GI50 [14]: 31.9 µM (inactive)
- GI50 [15]: 15.8 µM (inactive)
- GI50 [16]: 24.1 µM (inactive)
- GI50 [17]: 22.2 µM (inactive)
- GI50 [18]: 24.6 µM (inactive)
- GI50 [19]: 31.6 µM (inactive)
- GI50 [20]: 16.4 µM (inactive)
- GI50 [21]: 38.3 µM (inactive)
- GI50 [22]: 20 µM (inactive)
- GI50 [23]: 38.8 µM (inactive)
- GI50 [24]: > 100 µM
- GI50 [25]: 12.7 µM (inactive)
- GI50 [26]: 38.5 µM (inactive)
- GI50 [27]: 14.9 µM (inactive)
- GI50 [28]: 27.4 µM (inactive)
- GI50 [29]: 25.5 µM (inactive)
- GI50 [30]: 48.3 µM (inactive)
- GI50 [31]: 47 µM (inactive)
- GI50 [32]: 18.4 µM (inactive)
- GI50 [33]: 15.8 µM (inactive)
- GI50 [34]: 23.5 µM (inactive)
- GI50 [35]: 34.3 µM (inactive)
- GI50 [36]: 17.1 µM (inactive)
- GI50 [37]: 22.8 µM (inactive)
- GI50 [38]: 41.2 µM (inactive)
- GI50 [39]: 37.1 µM (inactive)
- GI50 [40]: 42.9 µM (inactive)
- GI50 [41]: 35.6 µM (inactive)
- GI50 [42]: 57.7 µM (inactive)
- GI50 [43]: 43.1 µM (inactive)
- GI50 [44]: 22.3 µM (inactive)
- GI50 [45]: 0.78 µM (active)
- GI50 [46]: 2.7 µM (inactive)
- GI50 [47]: 21.1 µM (inactive)
- GI50 [48]: 12.1 µM (inactive)

SMILES: CCN(CC)CCC1CCCCN1CC(=O)N1c2ccccc2NC(=O)c2ccccc21 (centres undefined)
- GI50 [1]: > 100 µM (inactive)
- GI50 [2]: > 100 µM (inactive)
- GI50 [49]: > 100 µM (inactive)
- GI50 [3]: > 100 µM (inactive)
- GI50 [4]: > 100 µM (inactive)
- GI50 [50]: > 100 µM (inactive)
- GI50 [5]: > 100 µM (inactive)
- GI50 [7]: > 100 µM (inactive)
- GI50 [8]: > 100 µM (inactive)
- GI50 [9]: > 100 µM (inactive)
- GI50 [10]: > 100 µM (inactive)
- GI50 [11]: > 100 µM (inactive)
- GI50 [12]: 6.11 µM (inactive)
- GI50 [13]: > 100 µM (inactive)
- GI50 [14]: > 100 µM (inactive)
- GI50 [51]: > 100 µM (inactive)
- GI50 [15]: > 100 µM (inactive)
- GI50 [16]: > 100 µM (inactive)
- GI50 [17]: > 100 µM (inactive)
- GI50 [18]: > 100 µM (inactive)
- GI50 [19]: > 100 µM (inactive)
- GI50 [20]: > 100 µM (inactive)
- GI50 [21]: > 100 µM (inactive)
- GI50 [22]: > 100 µM (inactive)
- GI50 [23]: > 100 µM (inactive)
- GI50 [24]: > 100 µM
- GI50 [25]: > 100 µM (inactive)
- GI50 [26]: > 100 µM (inactive)
- GI50 [27]: > 100 µM (inactive)
- GI50 [28]: > 100 µM (inactive)
- GI50 [29]: > 100 µM (inactive)
- GI50 [30]: > 100 µM (inactive)
- GI50 [31]: > 100 µM (inactive)
- GI50 [52]: > 100 µM (inactive)
- GI50 [53]: > 100 µM (inactive)
- GI50 [32]: > 100 µM (inactive)
- GI50 [33]: > 100 µM (inactive)
- GI50 [54]: > 100 µM (inactive)
- GI50 [34]: > 100 µM (inactive)
- GI50 [35]: > 100 µM (inactive)
- GI50 [36]: > 100 µM (inactive)
- GI50 [37]: > 100 µM (inactive)
- GI50 [55]: > 100 µM (inactive)
- GI50 [39]: > 100 µM (inactive)
- GI50 [40]: > 100 µM (inactive)
- GI50 [41]: > 100 µM (inactive)
- GI50 [42]: > 100 µM (inactive)
- GI50 [43]: > 100 µM (inactive)
- GI50 [44]: > 100 µM (inactive)
- GI50 [56]: > 100 µM (inactive)
- GI50 [45]: > 100 µM (inactive)
- GI50 [46]: > 100 µM (inactive)
- GI50 [47]: > 100 µM (inactive)
- GI50 [48]: > 100 µM (inactive)
- GI50 [57]: > 100 µM (inactive)
- GI50 [58]: > 100 µM (inactive)
